Results on 4 compounds are retold here after patent publication US7262151B2, “Methods and compositions for production of lipo-chito oligosaccharides by rhizobacteria” (McGill University, priority 2001, dated 2007).

Read-outs that look alike come from different tables or passages of the source.

Common to all, as to assay type: cell-based
Experiment [1] deals with nod genes in Bradyrhizobium japonicum strain USDA3. Particulars: for expression of nod genes (β-galactosidase assay), in words: 5-100 μM tested, FIG. 6; for nod gene induction at optimum concentration compared with optimum JA and MeJA concentrations / optimum concentration for nod gene induction: USDA3, β-galactosidase assay; for inhibitory or inducing activity in combinations (β-galactosidase assay): 25 and 50 μM with JA, MeJA and genistein (5 μM), FIGS. 3, 4, and 5; for nod gene induction (β-galactosidase activity): USDA3 (GG4), control 362 ± 25; for induction of nod genes (β-galactosidase activity vs control without inducer), in words: all concentrations, FIG. 1. Here is the method: Bradyrhizobium japonicum strain USDA3, harboring plasmid GG4, was used in the experiment. Plasmid GG4 contains a translational fusion between B. japonicum nod Y open-reading frame and lac Z of Escherichia coli.
(§1) Bacteria were grown in yeast extract mannitol (YEM) medium (mannitol 10.0 g, K2HPO4 0.5 g, MgSO4.7H2O 0.2 g, NaCl 0.1 g, and yeast extract 0.4 g dissolved in 1000 mL of dd H2O). In order to ensure the maintenance of the strains, tetracycline was added to the bacterial cultures at a concentration of 20 mg 1^−1. One hundred mL cultures of each strain, in 250 mL flasks, were shaken at 150 rev min^−1 at 30° C. for 3-5 days and then subcultured into 400 mL of fresh medium in 1000 mL flasks. The cultures were incubated until the OD620 reached 0.2-0.3. The cultures were then divided into 5 mL tubes (sterilized).
(§2) Stock solutions of various inducers: genistein, salicylic acid and acetylsalicylic acid made in methanol and linolenic, linoleic, and jasmonic acid and methyl jasmonate were made in ethanol, and an appropriate amount of these inducers was added into the tubes before addition of bacterial culture. In the tubes, the final concentration of all the inducers was maintained as 5, 10, 25, 50 and 100 μM. Tubes were collected after 18 h of incubation and stored at −20° C. until the β-galactosidase activity was measured. Genistein (4′,5,7, trihydroxyisoflavone, purity 98%,), linolenic acid (9,12,15-Octadecatrienoic acid, purity 99%), linoleic acid (cis-9, cis-12-Octadecadienoic acid, purity 99%), jasmonic acid (±Jasmonic acid, C12H18O3) and salicylic acid (2-hydroxybenzoic acid, purity 99.0%) were obtained from Sigma, while acetylsalicylic acid (C9H8O4, 99% purity) was obtained from Acros and methyl jasmonate (95% purity) was obtained from Aldrich Chemical Company, Inc.
(§3) β-galactosidase is an enzyme which hydrolyzes β-D-galactosides. The activity of this enzyme can easily be measured with colorless substrates, which upon hydrolysis produce colored products. O-nitrophenyl-β-galactoside (ONPG) is a colorless compound and is converted to galactose and O-nitrophenol in the presence of β-galactosidase. The O-nitrophenol is yellow and can be measured by its absorption at 420 nm. In the present study, nod gene expression was indirectly measured by β-galactosidase activity following the method of Miller (1972) as modified by Stachel et al, (1985). Briefly, 0.5 mL culture was mixed with 2×Z buffer (Na2HPO4.7H2O, 16.1 g, NaH2PO4.H2O, 5.5 g, KCl 0.75 g, MgSO4.7H2O 0.246 g, β-mercaptoethanol 2.7 g, pH 7.0 dissolved in 500 mL water) and 40 μL toluene and vortexed for 10 seconds. The culture was then incubated in a water bath at 37° C. for 30 minutes and then 0.2 mL of O-nitrophenyl β-D-galactopyranoside (ONPG) was added at a concentration of 4 mg mL^−1. The cultures were incubated again in the water bath until the color of the culture changed. The reaction time was recorded and the reaction was stopped with 1M Na2CO3. After centrifugation at 10,000 rpm for 4 minutes, spectrophotometric reading at OD420 and OD600 were taken and the β-galactosidase activity was measured (β-galactosidase activity=OD420*1000/OD600*T*V, where T is the reaction time and V is the volume of the bacterial culture used for enzyme assay).
The experiment was designed in a randomized complete block design (RCBD) with three replicates. […] Data are shown from the second experiment. Statistical analysis of the data was done with analysis of variance using the Statistical Analysis System computer package (SAS Institute, 1988). Comparisons among treatment means were made with an ANOVA protected LSD at the 0.05 level of statistical significance.

Experiment [2] concerns nod genes in Bradyrhizobium japonicum strain USDA31. The experiment can be described thus: nod gene induction, β-galactosidase assay, strain USDA31 (GG1). Here is the method:
as §1, §2, §3
(§4) The effect of 0-100 μM concentrations of each of acetylsalicylic acid, salicylic acid, jasmonic acid, methyl jasmonate, and genistein, on induction of nod gene expression in Bradyrhizobium japonicum strains USDA31, USDA76, USDA121, and USDA3, was evaluated in accordance with the β-galactosidase assay of Experiment 1 in Example 1 above.

Experiment [3] deals with nod genes in Bradyrhizobium japonicum strain USDA76. Put plainly: nod gene induction, β-galactosidase assay, strain USDA 76 (GG2). Particulars: control 411.8 ± 26.8. Here is the method: as §1, §2, §3, §4
Experiment [4] has as its system nod genes in Bradyrhizobium japonicum strain USDA121. Put plainly: nod gene induction, β-galactosidase assay, strain USDA121 (GG3). The settings on record: control 476.8 ± 86.6. Here is the method:
as §1, §2, §3, §4

The mark [5] stands for this setting: 5 μM, control without inducer 522.6 ± 15.9.

Consider `CC/C=C\C/C=C\C/C=C\CCCCCCCC(=O)O` [linolenic acid, (Z,Z,Z)-9,12,15-Octadecatrienoic acid], for which, in experiment [1], the “expression of nod genes (β-galactosidase assay), in words” value is “induced the expression of nod genes”; the “nod gene induction at optimum concentration compared with optimum JA and MeJA concentrations” value is recorded as “lower”; the “optimum concentration for nod gene induction” value amounted to 50 µM.
On to `O=C(O)c1ccccc1O` [SA, 2-hydroxybenzoic acid], for which the “nod gene induction (β-galactosidase activity)” value in experiment [2] (setting [5]) was 587 ± 66.6; in experiment [2] (10 μM, control 522.6 ± 15.9) it was 536.4 ± 40.1; in experiment [2] (25 μM, control 522.6 ± 15.9) it was 522.4 ± 65.3; in experiment [2] (50 μM, control 522.6 ± 15.9), 476.1 ± 28.4; in experiment [2] (100 μM, control 522.6 ± 15.9) it was 519.3 ± 43.5; in experiment [3] (5 μM), 562.2 ± 26.6. The “nod gene induction (β-galactosidase activity)” value in experiment [3] (10 μM) is 411.8 ± 75.3; in experiment [3] (25 μM), 473 ± 58.3; in experiment [3] (50 μM), 464.6 ± 36.2; in experiment [3] (100 μM) it was 430.7 ± 55.3; in experiment [4] (5 μM), 404.1 ± 62.5; in experiment [4] (10 μM), 472.7 ± 54.3. The “nod gene induction (β-galactosidase activity)” value in experiment [4] (25 μM) amounted to 435.8 ± 69.2; in experiment [4] (50 μM), 434.2 ± 26.3; in experiment [4] (100 μM), 369.8 ± 114.9; in experiment [1] (5 μM), 398 ± 13; in experiment [1] (10 μM), 402 ± 33; in experiment [1] (25 μM), 414 ± 17. Also, the “nod gene induction (β-galactosidase activity)” value in experiment [1] (50 μM) is given as 435 ± 26; in experiment [1] (100 μM), 515 ± 583. In addition, the “inhibitory or inducing activity in combinations (β-galactosidase assay)” value in experiment [1] was “did not show inhibitory or inducing activity”. Moreover, in experiment [1], the “induction of nod genes (β-galactosidase activity vs control without inducer), in words” value was “did not show any activity”.
Consider `CC(=O)Oc1ccccc1C(=O)O` [ASA, acetylsalicylic acid], for which the “nod gene induction (β-galactosidase activity)” value in experiment [2] (setting [5]) is 636.5 ± 66.9; in experiment [2] (10 μM, control 522.6 ± 15.9), 563.3 ± 37.9; in experiment [2] (25 μM, control 522.6 ± 15.9), 719.5 ± 75.2; in experiment [2] (50 μM, control 522.6 ± 15.9), 676.6 ± 85.8; in experiment [2] (100 μM, control 522.6 ± 15.9) it was 384.8 ± 34.4; in experiment [3] (5 μM), 363.2 ± 34.1. For the same compound, the “nod gene induction (β-galactosidase activity)” value is 341 ± 21.1 in experiment [3] (10 μM); 418.8 ± 59.5 in experiment [3] (25 μM); 376.2 ± 37.2 in experiment [3] (50 μM); 413.1 ± 85.5 in experiment [3] (100 μM); 422.6 ± 64.9 in experiment [4] (5 μM); 425 ± 39.4 in experiment [4] (10 μM). The “nod gene induction (β-galactosidase activity)” value in experiment [4] (25 μM) was 479.9 ± 88.6; in experiment [4] (50 μM) it was 445.4 ± 99; in experiment [4] (100 μM) it was 325.6 ± 58.8; in experiment [1] (5 μM), 396 ± 14.7; in experiment [1] (10 μM), 372 ± 16; in experiment [1] (25 μM) it was 382 ± 16. The “nod gene induction (β-galactosidase activity)” value in experiment [1] (50 μM) came out at 464 ± 7; in experiment [1] (100 μM), 527 ± 36. Further, the “inhibitory or inducing activity in combinations (β-galactosidase assay)” value in experiment [1] is “did not show inhibitory or inducing activity”. Also, the “induction of nod genes (β-galactosidase activity vs control without inducer), in words” value in experiment [1] is listed as “did not show any activity”.
As to `CCCCC/C=C\C/C=C\CCCCCCCC(=O)O` [linoleic acid, (Z,Z)-9,12-Octadecadienoic acid], in experiment [1], the “expression of nod genes (β-galactosidase assay), in words” value is “induced the expression of nod genes”; the “nod gene induction at optimum concentration compared with optimum JA and MeJA concentrations” value is listed as “lower”; the “optimum concentration for nod gene induction” value was 50 µM.
